Results on 13 compounds are retold here after patent publication US11976083B2, “Inhibitors of peptidylarginine deiminases” (Gilead Sciences, Inc., priority 2020, dated 2024).

pIC50: −log10 of the molar value.

T1 sequence (Q9UM07 2-663): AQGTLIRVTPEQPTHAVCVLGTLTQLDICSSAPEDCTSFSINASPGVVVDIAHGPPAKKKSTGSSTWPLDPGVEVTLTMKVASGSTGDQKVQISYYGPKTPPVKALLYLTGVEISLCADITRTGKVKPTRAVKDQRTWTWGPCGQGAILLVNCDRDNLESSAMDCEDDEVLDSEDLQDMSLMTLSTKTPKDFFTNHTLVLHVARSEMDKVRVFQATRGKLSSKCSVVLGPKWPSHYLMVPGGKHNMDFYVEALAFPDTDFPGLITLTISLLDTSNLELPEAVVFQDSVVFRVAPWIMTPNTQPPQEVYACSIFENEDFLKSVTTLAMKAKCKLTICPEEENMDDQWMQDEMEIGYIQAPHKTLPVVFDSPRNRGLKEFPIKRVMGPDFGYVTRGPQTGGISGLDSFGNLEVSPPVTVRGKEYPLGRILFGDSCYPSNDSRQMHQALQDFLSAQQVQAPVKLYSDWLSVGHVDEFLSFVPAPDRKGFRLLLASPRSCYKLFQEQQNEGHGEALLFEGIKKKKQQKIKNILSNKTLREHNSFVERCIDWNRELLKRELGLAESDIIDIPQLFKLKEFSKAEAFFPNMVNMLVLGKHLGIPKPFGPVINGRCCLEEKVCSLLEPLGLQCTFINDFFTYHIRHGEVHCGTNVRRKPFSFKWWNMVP

The assay has as its target T1, human PAD4 (Homo sapiens, UniProt Q9UM07).
T1 construct: human PAD4 (NM_012387), A2-P663, was PCR amplified; His-SUMO (N, cleaved yes); made in house; host or cells: E. coli BL21(DE3)
The assay is described as follows: In vitro PAD4 BAEE biochemical assay. The note with it: BAEE substrate 3 mM, 5 nM PAD4, 2 mM calcium chloride; geometric mean of multiple experiments. The text has this:
In Vitro PAD4 BAEE Biochemical Assay
The enzymatic activity of human PAD4 was monitored in a biochemical assay in the presence or absence of compounds using the small peptidyl arginine mimic BAEE (Na-Benzoyl-L-arginine ethyl ester hydrochloride) as substrate. PAD4 activity led to deimination of BAEE and release of ammonia. Levels of ammonia were monitored by using an amine coupling reaction and were indicative of PAD4 enzymatic activity.
One hundred nanoliters of test compounds dissolved in DMSO at various concentrations were dispensed into a 384-well black OptiPlate using a Labcyte Echo instrument. Ten microliters of a solution of recombinant PAD4 and calcium chloride diluted in PAD4 assay buffer (50 mM MOPS [3-(N-morpholino) propanesulfonic acid], pH 7.6; 50 mM sodium chloride; 0.05% Tween-20; 2 mM dithiothreitol) was added to the compound-containing plate and was incubated for 30 minutes at 25° C. Ten microliters of a solution of BAEE (Sigma-Aldrich #B4500) diluted in PAD4 assay buffer was then added to start the reaction. Final concentrations were 5 nM PAD4, 2 mM calcium chloride, and 3 mM BAEE. The reaction mixture was incubated at 25° C. for 2 hours and was stopped with the addition of 10 microliters of a solution of 75 mM EDTA (Ethylenediaminetetraacetic acid) in PAD4 assay buffer. Thirty microliters of detection solution (5 mM o-phthalaldehyde, 50 mM MOPS [3-(N-morpholino) propanesulfonic acid], pH 7.6; 50 mM sodium chloride; 0.05% Tween-20; 5 mM dithiothreitol) was then added and the reaction was incubated for 1 hour at 25° C. The level of fluorescent thiol-substituted isoindole resulting from the reaction of ammonia, o-phthalaldehyde, and dithiothreitol was measured on an Envision plate reader (PerkinElmer) with 405 nm excitation and 535 nm emission.
Data were normalized based on maximum inhibition (50 micromolar of the covalent PAD inhibitor BB-Cl-Amidine (Bicker, K. L.; Anguish, L.; Chumanevich, A. A.; Cameron, M. D.; Cui, X.; Witalison, E.; Subramanian, V.; Zhang, X.; Chumanevich, A. P.; Hofseth, L. J.; Coonrod, S. A.; Thompson, P. R. ACS Med. Chem. Lett. 2012, 3, 1081-1085). and no inhibition (DMSO) controls. Least squares curve fittings were performed using a four-parameter variable slope nonlinear regression model. IC50 is defined as the concentration of compound required to inhibit 50% of maximum activity. IC50 values from multiple experiments were averaged by geometric mean and the standard deviation was calculated.
Consider `COc1cc(C(=O)N2CC[C@H]3CCCN[C@H]3C2)cc2nc(-c3cc4ccc5nc4n3CCCCCCC(C)(C)C(=O)N[C@@H]5C)n(C)c12` (single isomer, unassigned) [Example 261, (11˜{R})-17-[5-[(4˜{a}˜{R},8˜{a}˜{R})-2,3,4,4˜{a},5,6,8,8˜{a}-octahydro-1˜{H}-1,7-naphthyridine-7-carbonyl]-7-methoxy-1-methyl-benzimidazol-2-yl]-8,8,11-trimethyl-1,10,19-triazatricyclo[10.5.2.0^{15,18}]nonadeca-12(19),13,15(18),16-tetraen-9-one], for which the negative-log IC50 (pIC50) is 6.97. Consider `COc1cc(C(=O)N2CC[C@@H]3CCCN[C@@H]3C2)cc2nc(-c3cc4ccc5nc4n3CCCCCCC(C)(C)C(=O)N[C@@H]5C)n(C)c12` (single isomer, unassigned) [Example 262, (11˜{R})-17-[5-[(4˜{a}˜{S},8˜{a}˜{S})-2,3,4,4˜{a},5,6,8,8˜{a}-octahydro-1˜{H}-1,7-naphthyridine-7-carbonyl]-7-methoxy-1-methyl-benzimidazol-2-yl]-8,8,11-trimethyl-1,10,19-triazatricyclo[10.5.2.0^{15,18}]nonadeca-12(19),13,15(18),16-tetraen-9-one], for which the pIC50 is 5.35.

As to `C[C@H]1NC(=O)[C@@H]2C[C@H]2CCCCCn2c(-c3nc4cc(C(=O)N[C@H]5CNCC[C@@H]5F)c(F)c(F)c4n3C3CC3)cc3ccc1nc32` (single isomer, unassigned) [Example 275, 1-cyclopropyl-6,7-difluoro-˜{N}-[(3˜{S},4˜{S})-4-fluoro-3-piperidyl]-2-[(2˜{R},5˜{R},7˜{R})-2-methyl-4-oxo-3,13,19-triazatetracyclo[11.5.2.0^{5,7}.0^{16,20}]icosa-1(19),14,16(20),17-tetraen-14-yl]benzimidazole-5-carboxamide], the negative-log IC50 (pIC50) was 7.62.

`COc1cc(C(=O)N2CCC[C@@H](N)C2)cc2nc(-c3cc4ccc5nc4n3C[C@H]3C[C@H]3COC[C@@H](C)C(=O)N[C@@H]5C)n(C)c12` (single isomer, unassigned) [Example 312, (3˜{S},5˜{R},9˜{R},12˜{R})-18-[5-[(3˜{R})-3-aminopiperidine-1-carbonyl]-7-methoxy-1-methyl-benzimidazol-2-yl]-9,12-dimethyl-7-oxa-1,11,20-triazatetracyclo[11.5.2.0^{3,5}.0^{16,19}]icosa-13(20),14,16(19),17-tetraen-10-one]: the negative-log IC50 (pIC50) was 7.25.

For the compound `COc1cc(C(=O)N2CCC[C@@H](N)C2)cc2nc(-c3cc4ccc5nc4n3C[C@H]3C[C@H]3COC[C@H](C)C(=O)N[C@@H]5C)n(C)c12` (single isomer, unassigned) [Example 313, (3˜{S},5˜{R},9˜{S},12˜{R})-18-[5-[(3˜{R})-3-aminopiperidine-1-carbonyl]-7-methoxy-1-methyl-benzimidazol-2-yl]-9,12-dimethyl-7-oxa-1,11,20-triazatetracyclo[11.5.2.0^{3,5}.0^{16,19}]icosa-13(20),14,16(19),17-tetraen-10-one], the pIC50 is 7.07.

`COc1cc(C(=O)N2[C@H]3CC[C@@H]2[C@H](N)C3)cc2nc(-c3cc4ccc5nc4n3C[C@H]3C[C@H]3COCCC(=O)N[C@@H]5C)c(C)n12` (single isomer, unassigned) [Example 327, (3˜{S},5˜{R},12˜{R})-18-[7-[(1˜{R},2˜{R},4˜{S})-2-amino-7-azabicyclo[2.2.1]heptane-7-carbonyl]-5-methoxy-3-methyl-imidazo[1,2-a]pyridin-2-yl]-12-methyl-7-oxa-1,11,20-triazatetracyclo[11.5.2.0^{3,5}.0^{16,19}]icosa-13(20),14,16(19),17-tetraen-10-one]: the pIC50 was 7.92.

Regarding `COc1cc(C(=O)N2[C@H]3CC[C@@H]2[C@H](N)C3)cc2nc(-c3cc4ccc5nc4n3C[C@@H]3C[C@@H]3COCCC(=O)N[C@@H]5C)c(C)n12` (single isomer, unassigned) [Example 328, (3˜{R},5˜{S},12˜{R})-18-[7-[(1˜{R},2˜{R},4˜{S})-2-amino-7-azabicyclo[2.2.1]heptane-7-carbonyl]-5-methoxy-3-methyl-imidazo[1,2-a]pyridin-2-yl]-12-methyl-7-oxa-1,11,20-triazatetracyclo[11.5.2.0^{3,5}.0^{16,19}]icosa-13(20),14,16(19),17-tetraen-10-one], the negative-log IC50 (pIC50) was 7.60. For the compound `COc1cc(C(=O)N2[C@H]3CC[C@@H]2[C@H](N)C3)cc2nc(-c3cc4ccc5nc4n3CCCCCC[C@@H](OC)C(=O)N[C@@H]5C)c(C)n12` (single isomer, unassigned) [Example 334, (8−{R},11−{R})-17-[7-[(1−{R},2˜{R},4˜{S})-2-amino-7-azabicyclo[2.2.1]heptane-7-carbonyl]-5-methoxy-3-methyl-imidazo[1,2-a]pyridin-2-yl]-8-methoxy-11-methyl-1,10,19-triazatricyclo[10.5.2^{15,18}]nonadeca-12(19),13,15(18),16-tetraen-9-one], the pIC50 was 7.41.

On to `COc1cc(C(=O)N2[C@H]3CC[C@@H]2[C@H](N)C3)cc2nc(-c3cc4ccc5nc4n3CCCCCC[C@H](OC)C(=O)N[C@@H]5C)c(C)n12` (single isomer, unassigned) [Example 335, (8˜{S},11˜{R})-17-[7-[(1˜{R},2˜{R},4˜{S})-2-amino-7-azabicyclo[2.2.1]heptane-7-carbonyl]-5-methoxy-3-methyl-imidazo[1,2-a]pyridin-2-yl]-8-methoxy-11-methyl-1,10,19-triazatricyclo[10.5.2.0^{15,18}]nonadeca-12(19),13,15(18),16-tetraen-9-one], for which the negative-log IC50 (pIC50) is 7.49. Turning to `COc1cc(C(=O)N[C@H]2CNCC[C@@H]2F)cc2nc(-c3cc4ccc5nc4n3C[C@H]3[C@H](CCCC(C)(C)C(=O)N[C@@H]5C)C3(F)F)n(C)c12` (single isomer, unassigned) [Example 364, 2-[(3˜{R},5˜{S},12˜{R})-4,4-difluoro-9,9,12-trimethyl-10-oxo-1,11,20-triazatetracyclo[11.5.2.0^{3,5}.0^{16,19}]icosa-13(20),14,16(19),17-tetraen-18-yl]-˜{N}-[(3˜{S},4˜{S})-4-fluoro-3-piperidyl]-7-methoxy-1-methyl-benzimidazole-5-carboxamide], the pIC50 is 6.69.

As to `COc1cc(C(=O)N[C@H]2CNCC[C@@H]2F)cc2nc(-c3cc4ccc5nc4n3C[C@@H]3[C@@H](CCCC(C)(C)C(=O)N[C@@H]5C)C3(F)F)n(C)c12` (single isomer, unassigned) [Example 365, 2-[(3˜{S},5˜{R},12˜{R})-4,4-difluoro-9,9,12-trimethyl-10-oxo-1,11,20-triazatetracyclo[11.5.2.0^{3,5}.0^{16,19}]icosa-13(20),14,16(19),17-tetraen-18-yl]-˜{N}-[(3˜{S},4˜{S})-4-fluoro-3-piperidyl]-7-methoxy-1-methyl-benzimidazole-5-carboxamide], the pIC50 is 6.92. As for `C[C@H]1NC(=O)[C@H]2[C@@H](CCCCCn3c(-c4nc5cc(C(=O)N[C@H]6CNCC[C@@H]6F)c(F)cc5n4C)cc4ccc1nc43)C2(F)F` (single isomer, unassigned) [Example 381, 2-[(2˜{R},5˜{R},7˜{R})-6,6-difluoro-2-methyl-4-oxo-3,13,19-triazatetracyclo[11.5.2.0^{5,7}.0^{16,20}]icosa-1(19),14,16(20),17-tetraen-14-yl]-6-fluoro-˜{N}-[(3˜{S},4˜{S})-4-fluoro-3-piperidyl]-1-methyl-benzimidazole-5-carboxamide], the pIC50 was 7.54.

`C[C@H]1NC(=O)[C@@H]2[C@@H](CCCCCn3c(-c4nc5cc(C(=O)N[C@H]6CNCC[C@@H]6F)c(F)cc5n4C)cc4ccc1nc43)C2(F)F` (single isomer, unassigned) [Example 382, 2-[(2˜{R},5˜{S},7˜{R})-6,6-difluoro-2-methyl-4-oxo-3,13,19-triazatetracyclo[11.5.2.0^{5,7}.0^{16,20}]icosa-1(19),14,16(20),17-tetraen-14-yl]-6-fluoro-˜{N}-[(3˜{S},4˜{S})-4-fluoro-3-piperidyl]-1-methyl-benzimidazole-5-carboxamide]: the pIC50 is 6.97.

Broadly, the pIC50 is −log10 of the IC50, conventionally taken in molar units.
